These results are taken from patent US20250270201A1, “SUBSTITUTED PYRIMIDINYL HYDRAZIDE COMPOUND AND PREPARATION METHOD AND USE THEREOF” (ARIGENX THERAPEUTICS CO., LTD., priority 2022, published 2025).

This assay concerns the target T1, AHR (Homo sapiens, UniProt P35869).
T1 construct: A human liver cancer cell line HepG2 endogenously expressing an AHR protein; host or cells: HepG2 stably transfected with a CYP1A1-promoter firefly luciferase reporter
T1 sequence (P35869 11-848): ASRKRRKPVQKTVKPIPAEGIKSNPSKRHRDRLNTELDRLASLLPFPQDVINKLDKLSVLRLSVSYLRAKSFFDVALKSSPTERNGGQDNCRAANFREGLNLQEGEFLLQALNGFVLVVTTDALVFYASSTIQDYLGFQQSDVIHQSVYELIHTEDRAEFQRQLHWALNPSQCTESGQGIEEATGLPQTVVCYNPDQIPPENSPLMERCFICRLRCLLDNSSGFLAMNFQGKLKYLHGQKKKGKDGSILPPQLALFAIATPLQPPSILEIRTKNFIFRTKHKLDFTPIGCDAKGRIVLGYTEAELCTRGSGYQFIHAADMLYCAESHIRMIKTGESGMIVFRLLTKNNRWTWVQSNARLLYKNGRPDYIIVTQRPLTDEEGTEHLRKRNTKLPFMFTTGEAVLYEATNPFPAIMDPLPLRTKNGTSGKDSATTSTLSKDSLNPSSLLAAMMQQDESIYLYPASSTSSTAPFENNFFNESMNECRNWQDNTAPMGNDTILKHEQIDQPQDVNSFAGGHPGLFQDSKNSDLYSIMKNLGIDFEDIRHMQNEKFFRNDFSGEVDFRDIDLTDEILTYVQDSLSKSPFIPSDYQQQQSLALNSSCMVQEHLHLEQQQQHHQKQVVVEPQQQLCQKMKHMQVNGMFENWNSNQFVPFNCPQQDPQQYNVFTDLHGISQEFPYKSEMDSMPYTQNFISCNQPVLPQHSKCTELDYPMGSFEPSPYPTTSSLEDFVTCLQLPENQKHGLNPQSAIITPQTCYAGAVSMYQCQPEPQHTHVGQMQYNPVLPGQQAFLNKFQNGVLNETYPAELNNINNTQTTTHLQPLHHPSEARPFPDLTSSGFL
Kind of assay: Antagonistic effect for AHR in HepG2 cells stably transfected with CYP1A1-promoter firefly luciferase reporter. The assay is classed as cell-based. To be noted: AHR agonist-stimulated, 24 h compound treatment, average of two replicates. An excerpt: A human liver cancer cell line HepG2 endogenously expressing an AHR protein (provided by the Stem Cell Bank of the Chinese Academy of Sciences) was adopted for testing. The expression of a CYP1A1 gene is regulated by an activity of AHR. After being activated, AHR can bind to a sequence called XRE on a CYP1A1 enhancer and initiate the expression of the CYP1A1 gene. To quantitatively determine an impact of a compound on the activity of AHR, a 1,200 bp (−1,143 to +57) regulatory sequence upstream of a promoter of the CYP1A1 gene was synthesized through gene synthesis and then inserted into a plasmid vector carrying firefly luciferase. The plasmid was then linearized through single enzyme cleavage and then transfected into HepG2 cells through lipofectin transfection (Lipofectamine 3000), and transfected HepG2 cells were screened by puromycin to obtain a stably-expressed cell line. When an antagonistic effect of a compound for AHR was tested, the expression of firefly luciferase was initiated by an AHR agonist (such as L-kynurenine, kynurenic acid, indirubin, TCDD, and 2-(1H-indol-3-ylcarbonyl)-4-thiazolecarboxylic acid methyl ester (ITE)), and cells were treated with the compound at different concentrations. Then, the inhibition on the expression of luciferase by the compound was measured.
Stably-transfected HepG2 cells were sub-cultivated in Minimum Eagle's medium (MEM) at 37° C. and 5% carbon dioxide. In the MEM, 1 mM sodium pyruvate, 2 mM GlutaMax, 1×non- essential amino acids, 10% Australian fetal bovine serum, 100 U/mL penicillin-streptomycin, and 5 μg/mL puromycin were supplemented. Before testing, HepG2 cells were inoculated into a 96-well plate at a density of 5-8×10^4 cells/well and cultivated for 24 h to 48 h to allow a cell confluency of about 90% before a drug treatment (puromycin was not added in a medium). Before the drug treatment, AHR agonist-containing 2×compound solutions at different concentrations were prepared with a same medium, and then a half of a cell culture medium in the 96-well plate was replaced with a 2×compound solution. An AHR agonist solution including only DMSO at a corresponding concentration was set as a negative control group, and CH223191 at a corresponding concentration (commercially available) was set as a positive control group. 2 separate replicate tests were set for each compound (including a positive control and a negative control). 24 h after the compound treatment, HepG2 cells were lysed by a Steady-Glo luciferase detection system of Promega, and a luciferase signal was measured by an InfiniteM1000 Pro microplate reader of Tecan.
In terms of data processing, for each replicate test of each compound, inhibition percentages of a compound at different concentrations on an activity of AHR were calculated sequentially with a signal of a well at a compound concentration of 0 as 100% and a cell signal of an untreated agonist as 0. Corresponding IC50 of a compound was calculated with an average value of data of two replicates according to the formula
tirougn non-nnear ning, where y represents an inhibition percentage and x represents a concentration of a corresponding compound.
IC50 for each compound was shown in Table 2, where A indicates IC50≤500 nM, B indicates 500 nM<IC50≤1.0 μM, C indicates 1 μM<IC50≤5.0 μM, and D indicates IC50>5.0 μM.
For orientation: A reporter such as luciferase makes a cellular process visible.

The structures appear in SMILES notation. Bounds are passed on as bounds.

In general, IC50 refers to the point on the concentration scale where inhibition reaches its midpoint. A lower IC50 goes with greater potency. Take `Cn1cc(-c2nc(C(=O)NN3CCOC[C@H]3CO)cc(-c3ccc(C(F)(F)F)cc3)n2)cn1` [Compound 45]: the IC50 was ≤ 500 nM.

With `O=C(NN1CCOC[C@@H]1CO)c1cc(-c2ccc(Cl)cc2)nc(-c2cccnc2)n1` [Compound 47], the IC50 is ≤ 500 nM.

`COc1ccc(-c2cc(C(=O)NN(C(C)C)C(C)CO)nc(-c3cccnc3)n2)cc1` (stereo not shown) [Compound 48] had an IC50 of 500 to 1000 nM.

In the case of `Cc1ccc(-c2cc(C(=O)NN(C(C)C)C(C)CO)nc(-c3cccnc3)n2)cc1` (stereo not shown) [Compound 49], the IC50 is ≤ 500 nM.

In turn, `Cc1ccc(-c2cc(C(=O)NN(C(C)C)C(C)CO)nc(-c3cccnc3)n2)cn1` (stereo not shown) [Compound 50] came in with an IC50 of 500 to 1000 nM.

Compound `CC(C)N(NC(=O)c1cc(-c2ccc(O)cc2)nc(-c2cccnc2)n1)C(C)CO` (stereo not shown) [Compound 51] showed an IC50 of 500 to 1000 nM.

Take `CCN(NC(=O)c1cc(-c2ccc(C(F)(F)F)cc2)nc(-c2cccc(F)c2)n1)C(C)CO` (stereo not shown) [Compound 52]: the IC50 was ≤ 500 nM.

`CCN(NC(=O)c1cc(-c2ccc(C(F)(F)F)cc2)nc(-c2cccc(C)c2)n1)C(C)CO` (stereo not shown) [Compound 53] gave an IC50 of 500 to 1000 nM.

For `CCN(NC(=O)c1cc(-c2ccc(Cl)cc2)nc(-c2cccc(F)c2)n1)C(C)CO` (stereo not shown) [Compound 54], the concentration for half-maximal inhibition (IC50) is ≤ 500 nM.

Turning to `CCN(NC(=O)c1cc(-c2ccc(Cl)cc2)nc(-c2cccc(C)c2)n1)C(C)CO` (stereo not shown) [Compound 55], the IC50 lay in the range of 500 to 1000 nM.

On to `CCN(NC(=O)c1cc(-c2ccc(C(F)(F)F)cc2)nc(-c2cccs2)n1)C(C)CO` (stereo not shown) [Compound 56], for which the half-maximal inhibitory concentration (IC50) is ≤ 500 nM.

Regarding `CCN(NC(=O)c1cc(-c2ccc(C(F)(F)F)cc2)nc(-c2cnsc2)n1)C(C)CO` (stereo not shown) [Compound 57], the half-inhibitory concentration (IC50) is ≤ 500 nM.

Compound `CC(C)N(NC(=O)c1cc(-c2cccc(F)c2)nc(-c2cccnc2)n1)C(C)CO` (stereo not shown) [Compound 58] had an IC50 of 500 to 1000 nM.

With `CC(C)N(NC(=O)c1cc(-c2ccc(F)cc2)nc(-c2cccnc2)n1)C(C)CO` (stereo not shown) [Compound 59], the half-maximal inhibitory concentration (IC50) is 500 to 1000 nM.

`CC(C)N(NC(=O)c1cc(-c2ccc(C(F)(F)F)nc2)nc(-c2cccnc2)n1)C(C)CO` (stereo not shown) [Compound 60] showed an IC50 of 500 to 1000 nM.

`CC(C)N(NC(=O)c1cc(-c2ccc(C(F)(F)F)cc2)nc(-c2cccc(F)c2)n1)C(C)CO` (stereo not shown) [Compound 61]: the IC50 is ≤ 500 nM.

Consider `Cc1ccc(-c2cc(C(=O)NN(C(C)C)C(C)CO)nc(-c3cccnc3)n2)s1` (stereo not shown) [Compound 62], for which the IC50 is 500 to 1000 nM.

In turn, `CC(C)N(NC(=O)c1cc(-c2ccc(N)cc2)nc(-c2cccnc2)n1)C(C)CO` (stereo not shown) [Compound 63] registered an IC50 of 500 to 1000 nM.

For the compound `CC(C)N(NC(=O)c1cc(-c2ccc(C(F)(F)F)nc2)nc(-c2cccc(F)c2)n1)C(C)CO` (stereo not shown) [Compound 65], the concentration for half-maximal inhibition (IC50) fell in the range of 500 to 1000 nM.

On to `CC(=O)N(NC(=O)c1cc(-c2ccc(C(F)(F)F)cc2)nc(-c2cccnc2)n1)C(C)C` [Compound 66], for which the concentration for half-maximal inhibition (IC50) was ≤ 500 nM.

As to `CC(C)N(NC(=O)c1cc(-c2ccc(C(F)(F)F)cc2)nc(-c2cccnc2)n1)S(C)(=O)=O` [Compound 67], the IC50 is ≤ 500 nM.

Take `CC(C)N(NC(=O)c1cc(-c2ccc(C(F)(F)F)cc2)nc(-c2cccnc2)n1)C(=O)c1cccnc1` [Compound 68]: the IC50 is ≤ 500 nM.
